In a melting point compilation (Tetko et al.; mined from patent text by program, amines drawn as free bases though some values may be those of a salt) one finds melting point data, which are given here for 89 compounds.

The structures appear in SMILES notation.

In the case of `O=C(O)c1ncn2c1[C@@H]1CCN1C(=O)c1cc(F)ccc1-2`, the melting point fell in the range of 159 to 160 °C.
The result for `CC(=O)N1CCN(c2cc3c(c(NCc4ccccc4)c2F)c(=O)c(C(=O)O)cn3C2CC2)CC1C` (centres undefined) reads 235 to 236 °C.
With `OCc1nccc(N2CCOCC2)c1Cl` the figure was 80 to 82 °C.
`Cc1cnc2c(c1)C(=O)c1nccc(Br)c1C2=O` showed a melting point of over 200 °C.
With `OCc1cccc(Nc2nc(Oc3ccccc3)nc(Oc3ccc(Cl)cc3)n2)c1` the figure was 110 to 114 °C; with `CC(=O)c1cc2c(c(C)c1O)OC(C)(C)CC2C` (centres undefined), 96 to 97 °C.
The result for `C#Cc1ccc(C2CCC(C3CCC(CCC)CC3)CC2)cc1` (centres undefined) reads 71 °C; that for `CNC(=O)N1CC(Oc2cccc(C(N)=O)c2)C1`, 238 to 240 °C.
With `N[C@H]1CCN(c2ccc3c(NC(=O)CCc4ccccc4Cl)c(Cl)ccc3n2)C1` the figure was 200 to 212 °C; with `Nc1ccccc1C(=O)CCC(=O)O`, 103 to 107 °C; with `O=C(NCc1ccc(F)cc1)c1ccnc(N2CCN(Cc3ccc(F)c(F)c3)C2=O)c1`, 165 to 167 °C.
Turning to `COc1ccccc1Oc1c(NS(=O)(=O)c2ccc3ccccc3c2)nc(N2CCOCC2)nc1OCCOc1ncc(Br)cn1`, the melting point lay within 178 to 182 °C.
With `COc1cccc(OC)c1CN1C(=O)C2CCCN2c2ccccc21` (centres undefined) the figure was 128 to 130 °C.
The result for `CCNC(=O)c1c(Br)csc1[Si](C)(C)C` reads 93 to 96 °C; that for `N#Cc1ccc2c(c1)COC2c1ccc(F)cc1` (centres undefined), 96 to 98 °C; that for `CCOC(=O)C1(NS(=O)(=O)c2ccc3c(Cl)cnc(NC(=N)N)c3c2)CCCC1`, 225 to 226 °C.
The result for `Brc1csc(C#Cc2ccccc2)n1` reads 79 to 82 °C.
`OCc1c[nH]c(-c2ccc(OCc3ccccc3)cc2)n1` yielded a melting point of 183 to 185 °C.
The result for `CCOC(=O)Cn1c(=O)c(=O)[nH]c2cc(C(F)(F)F)c(-n3ccc(C=O)c3)cc21` reads 236 to 237 °C; that for `N#Cc1c(OCC(F)(F)F)nc(CCO)nc1N1CCc2ccccc2CC1`, 114 to 116 °C; that for `CON(C)C(=O)CN1CCC(CCN2CCN(c3cccc(C)c3C)CC2)CC1`, 66 °C.
The result for `CCOC(=O)c1cc2c(nc1C)C(=Cc1ccco1)CCC2` reads 119 to 120 °C.
The result for `COCCNC(=O)c1cccc(-c2ccc(F)c3cc(Cc4cccc(C(F)(F)F)c4)sc23)c1` reads 123 to 124 °C; that for `O=c1cc(NCCN2CCN(c3cccc4c3OCCO4)CC2)cn[nH]1`, 244 to 246 °C.
`CCN1C(=O)CN=C(c2ccccc2F)c2cc(C(C)=O)ccc21`: the melting point was 154 to 156 °C.
With `CCOC(=O)/C=C/c1nc(COc2ccc(CCl)cc2OC)c(C)o1` the figure was 107 to 108 °C; with `COc1ccc(CCN(C)CCOc2ccc(NC(=O)c3cccc4c(=O)c5cccc(OC)c5[nH]c34)cc2)cc1OC`, 190 °C; with `Cc1c(C)c2c(c(C)c1N)CC(C)(CN1CCC(CCCc3ccccc3)CC1)O2` (centres undefined), 79 to 80 °C.
The result for `O=S(=O)(Nc1ccc(Cl)cc1Oc1ccc(Cl)cc1Cl)C(F)(F)F` reads 97 to 98 °C; that for `CCCC(=O)c1ccc(N2CCOCC2)cc1`, 64.5 to 65.5 °C; that for `N#CC1=CC(CF)(CF)Oc2ccc(Br)cc21`, 105 to 107 °C.
`CCCCCCCCCCCCCCCC/C=C\OC[C@H](O)CO`: the melting point lay within 55 to 56 °C.
In turn, `C=CS(=O)(=O)NCCCc1ccc(-c2ccc(=O)[nH]n2)cc1` registered a melting point of 166 to 168 °C.
`O=C(Cc1c[nH]c2ccccc12)Nc1ccccc1C(=O)O` yielded a melting point of 205 to 207 °C.
With `COC(=O)Cc1ccc[nH]c1=O` the figure was 183 to 184 °C.
With `COc1ccc(C(=O)Nc2ccc(C3(CNC(=O)C(C)(C)C)CCCC3)cc2)cc1OC` the figure was 165 to 167 °C.
As to `CC(C)(N)[C@@H]1CCN(c2cc3c(c(N)c2F)c(=O)c(C(=O)O)cn3C2CC2)C1`, the melting point is over 300 °C.
The result for `CCCOc1cc(CO)n(Cc2ccc3ccccc3n2)n1` reads 90 to 91 °C; that for `O=C(CC(=O)C(F)(F)F)c1ccc(Cl)cc1`, 66 to 67 °C; that for `Cn1c2ccccc2c2nc3cccc(CO)c3nc21`, 201 °C.
In turn, `Cc1cc2c(s1)SCC1CC(=O)N(c3ccc(Cl)cc3)N=C21` (centres undefined) returned a melting point of 142 to 144 °C.
With `CCCC(O)c1cc(C#N)ccc1OCc1ccc(Cl)cc1Cl` (centres undefined) the figure was 120 to 121 °C.
The result for `C=CCN(C=O)c1ccc([N+](=O)[O-])cc1C` reads 56 °C; that for `N#Cc1ccc(C(=O)c2ccccc2)s1`, 85 to 89 °C; that for `O=C(O)CCCc1cc2nc(Cl)ccc2n1S(=O)(=O)c1c(F)cc(F)cc1F`, 135 to 150 °C.
The result for `CCCc1ccc(CCCOc2c(C)cc(-c3nnn(C)n3)cc2C)nn1` reads 78 to 80 °C.
Turning to `O=CC(=Cc1ccccc1)C(C=O)=Cc1ccccc1`, the melting point fell in the range of 109 to 110 °C.
With `COc1cccc(NC(=O)O[C@@H]2CN=C(c3ccccc3)O[C@H]2c2ccccc2)c1` (racemic) the figure was 110 °C; with `N[C@@H](Cc1c[nH]c2ccccc12)C(=O)N(N)C(=O)[C@H](Cc1c[nH]cn1)NC(=O)[C@@H]1CCC(=O)N1`, 165 to 169 °C; with `Cc1cccc(-c2nc(CC(=O)O)sc2-c2ccnc(N)c2)c1`, 132 to 133 °C.
The result for `O=C(Cl)c1ccc(Cl)c(OCCn2cnnn2)c1Cl` reads 69 to 73 °C.
With `CCOC(=O)c1ncc(C)nc1O` the figure was 153 °C; with `NC(=NO)C1CCN(c2ccc3c(NC(=O)CC4CCCCC4)c(Cl)ccc3n2)CC1`, 246 to 247 °C.
In turn, `COc1ccc(C=CC(=O)c2ccc(OC)cc2O)cc1` had a melting point of 108 °C.
Take `c1ccc(COc2ccc([C@H]3CC[C@@H](NCCOc4ccccc4)CC3)cc2)cc1`: the melting point fell in the range of 95 to 98 °C.
With `O=C(Nc1cnns1)c1ccccc1` the figure was 267 °C.
The result for `CC(c1oc2ccccc2c(=O)c1-c1cccc(F)c1)n1nc(-c2ccc(OC(F)(F)F)cc2)c2c(N)ncnc21` (centres undefined) reads 224 to 226 °C; that for `Cc1c[nH]c2ccc(Nc3ncnc4cc(-c5ccccc5)sc34)cc12`, 221 to 223 °C; that for `Nc1nc(-n2cc(C(=O)O)c(=O)c3cc(F)c(F)c(F)c32)c(F)cc1F`, 280 °C.
Take `CCCCCCCN(CCCCCS(=O)c1nc(-c2ccccc2)c(-c2ccccc2)[nH]1)C(=O)Nc1ccc(F)cc1F` (centres undefined): the melting point was in the range of 77 to 79 °C.
The result for `CCCN(CCC)C(=O)Cn1c(-c2ccc(Cl)cc2)nc2ccc(Cl)nc21` reads 170 to 174 °C.
The compound `CC(C)(C#N)c1ccc(C(=O)C2CC2)cc1` showed a melting point of 80 to 82 °C.
With `CC(C)OC(=O)Cn1c(=O)n(C)c(=O)n(-c2cc(-n3c(=O)n4n(c3=S)CCCC4)c(F)cc2Cl)c1=O` the figure was 136 to 142 °C.
Compound `COc1ccc2c(c1)c(CC(=O)OCC(=O)OC(C)(C)C)c(C)n2C(=O)c1ccc(Cl)cc1` returned a melting point of 96 to 97 °C.
With `CC12CCC1(C)C(=O)OC2=O` (centres undefined) the figure was 84 to 86 °C.
The result for `COc1ccc(-n2c(=O)c(C)nc3cccnc32)cc1` reads 251 to 252 °C; that for `CCOC(=O)Cc1cccc(OCc2ccc3oc([N+](=O)[O-])c(-c4ccccc4)c3c2)c1`, 67 to 68 °C.
The result for `CC(C)(C)OC(=O)N1CCN(CCc2ccc(Nc3ncc4c(n3)-c3ccccc3C(c3ccccc3C(F)(F)F)C4)cc2)CC1` (centres undefined) reads 234 to 235 °C; that for `CCOC(=O)c1sc(SC(C)C)c2c1CCc1nc(C)oc1-2`, 62 to 63 °C.
Turning to `COc1ccc(CNc2cc3c(Nc4ccc(Cl)c(Cl)c4)ncnc3cn2)cc1`, the melting point fell in the range of 209 to 211 °C.
The result for `CCOC(C)(C)C(=O)O[C@H]1C[C@H](O)C=C2C=C[C@H](C)[C@H](CC[C@@H]3C[C@@H](O)CC(=O)O3)[C@H]21` reads 132 °C; that for `CC(c1c(F)ccc(F)c1Cl)N1CCNc2ncc(I)cc21` (centres undefined), 166 °C; that for `Cc1cc(CCC[C@H](CC(=O)OC(C)(C)C)C(=O)N[C@H](C(=O)O)C(C)(C)C)ccc1-c1ccccc1`, 51 to 56 °C.
With `Cn1c(C(F)(F)F)cc(=O)n(-c2cc(OCOc3ccc(Cl)cc3)c(Cl)cc2F)c1=O` the figure was 120 to 122 °C.
The result for `COc1nc(N)c(Cl)cc1C(=O)CCC1CCN(CC(C)(C)O)CC1` reads 108 °C; that for `CN1C2=NC(C)(C)N(C)C(=O)N2c2ccccc21`, 79 to 82 °C.
Turning to `CCCCC(=O)OC1(C(C)=O)C(C)CC2C3CCC4=CC(=O)C=CC4(C)C3(Cl)C(Cl)CC21C` (centres undefined), the melting point fell in the range of 170 to 172 °C.
`CC[C@@H](c1ccccc1)N(Cc1ccc(C(=O)O)c(F)c1)S(=O)(=O)c1ccc(Cl)cc1`: the melting point was 95 to 97 °C.
The result for `CC(C)C(=O)CC(=O)Nc1ccccc1` reads 46.5 to 58.8 °C; that for `CCCc1nc(C(C)(C)O)c(C(=O)OCC)n1Cc1ccc(-c2ccccc2C#N)cc1`, 92 to 93 °C; that for `N#Cc1ccc(C(CC(=O)O)N2C(=O)c3ccccc3C2=O)cc1` (centres undefined), 134 to 137 °C.
For `CCOC(=O)Cc1ccc(SCc2ccc(NC(C)=O)cc2C(=O)O)cc1`, the melting point worked out at 170 °C.
With `CCN(CC)C(=O)c1c(OC)cccc1-c1ccccc1` the figure was 79 to 80 °C; with `CCOC(=O)C=CC=Cc1ccc(-n2ccnc2)cc1`, 126 to 127 °C; with `CC(NC(=O)c1cccnc1)c1ccccc1` (centres undefined), 88 to 89 °C.
As to `Cc1ccc(S(=O)(=O)N2CCCC(S(=O)(=O)c3ccc(Cl)cc3)C2)cc1` (centres undefined), the melting point lay in the range of 186 to 187 °C.
In the case of `CCCC[C@]1(CC)CSc2cc(OC)c(OC)cc2[C@@H](c2ccccc2)N1`, the melting point is 64 to 66 °C.
With `NC1=NS(=O)N=C1NCCCN(Cc1ccccc1F)c1ccccn1` (centres undefined) the figure was 180 to 182 °C; with `Oc1ccc(Sc2ccc(F)cc2)c2ccccc12`, 195 to 198 °C.

Broadly, the melting point is the temperature of the solid-liquid transition.
